Test results as given in patent EP0776896A1, “Heterocyclic compounds and their use” (priority 1995, dated 1997).
Where two headings read alike, the source gives them in different places.

Legend:
[1] = molecular target: muscarinic acetylcholine receptors; experiment: Inhibition of specific binding of ^3H-Oxotremorine-M to rat cortex homogenate; set-up: species or system male Wistar rats; settings: 1.0 nM ^3H-Oxotremorine, 30 min at 25°C, read-out: ^3H-Oxo-M IC50
From the text: The pharmacological properties of the compounds of the invention can be illustrated by determining their capability to inhibit the specific binding of ^3H-Oxotremorine-M (^3H-Oxo). Birdsdall N.J.M., Hulme E.C., and Burgen A.S.V. (1980). "The Character of Muscarinic Receptors in Different Regions of the Rat Brain". Proc. Roy. Soc. London (Series B) 207,1.
^3H-Oxo labels muscarinic receptor in the CNS (with a preference for agonist domains of the receptors). Three different sites are labeled by ^3H-Oxo. […] Using the present experimental conditions only the high and medium affinity sites are determined.
The inhibitory effects of compounds on ^3H-oxo binding reflects the affinity for muscarinic acetylcholine receptors.
(§1) All preparations are performed at 0-4°C unless otherwise indicated. Fresh cortex (0.1-1 g) from male Wistar rats (150-250 g) is homogenized for 5-10 s in 10 mL 20 nM Hepes pH: 7.4, with an Ultra-Turrax homogenizer. The homogenizer is rinsed with 10 mL of buffer and the combined suspension centrifuged for 15 min. at 40,000 x g. The pellet is washed three times with buffer. In each step the pellet is homogenized as before in 2 x 10 mL of buffer and centrifuged for 10 min. at 40,000 x g.
The final pellet is homogenized in 20 mM Hepes pH: 7.4 (100 mL per g of original tissue) and used for binding assay. Aliquots of 0.5 mL is added 25 µL of test solution and 25 µL of ^3H-Oxotremorine (1.0 nM, final concentration) mixed and incubated for 30 min. at 25°C. Non-specific binding is determined in triplicate using arecoline (1 µg/mL, final concentration) as the test substance. After incubation samples are added 5 mL of ice-cold buffer and poured directly onto Whatman GF/C glass fiber filters under suction and immediately washed 2 times with 5 mL of ice-cold buffer. The amount of radioactivity on the filters are determined by conventional liquid scintillation counting. Specific binding is total binding minus non specific binding.
Test substances are dissolved in 10 mL water (if necessary heated on a steam-bath for less than 5 min.) at a concentration of 2.2 mg/mL. 25-75% inhibition of specific binding must be obtained before calculation of IC50. The test value will be given as IC50 (the concentration (nM) of the test substance which inhibits the specific binding of ^3H-oxo by 50%). IC50 = (applied test substance concentration) x(Cx/Co-Cx)nM where Co is specific binding in control assays and Cx is the specific binding in the test assay. (The calculations assume normal mass-action kinetics).

[2] = molecular target: T1, muscarinic receptors (M1-site, pirenzepine sensitive site) (Rattus norvegicus, UniProt P08482); experiment: Inhibition of ^3HPRZ (pirenzepine) binding to rat cerebral cortex membranes; set-up: species or system male Wistar rats; settings: 1.0 nM ^3HPRZ, 60 min at 20°C
T1 construct: Fresh cortex (0.1-1 9) from male Wistar rats (150-200 g) is homogenized; from tissue; host or cells: rat cerebral cortex membranes
T1 sequence (P08482 1-460): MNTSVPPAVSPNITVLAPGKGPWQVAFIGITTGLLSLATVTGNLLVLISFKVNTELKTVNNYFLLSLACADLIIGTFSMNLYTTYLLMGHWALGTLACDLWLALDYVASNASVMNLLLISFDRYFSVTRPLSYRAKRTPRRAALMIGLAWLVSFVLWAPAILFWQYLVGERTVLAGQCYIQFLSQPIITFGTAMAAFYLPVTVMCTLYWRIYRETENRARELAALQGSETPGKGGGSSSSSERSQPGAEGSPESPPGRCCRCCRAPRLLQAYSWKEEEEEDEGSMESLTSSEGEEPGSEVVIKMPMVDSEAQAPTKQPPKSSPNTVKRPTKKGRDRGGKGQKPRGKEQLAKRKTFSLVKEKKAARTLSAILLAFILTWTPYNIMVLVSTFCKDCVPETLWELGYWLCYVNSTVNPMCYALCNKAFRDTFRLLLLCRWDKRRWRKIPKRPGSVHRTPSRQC
Experimental: Furthermore the pharmacological properties of the compounds of the invention can also be illustrated by determining their capability to inhibit ^3HPRZ (pirenzepine, [N-methyl^-3H]) binding to rat cerebral cortex membranes.
Pirenzepine binds selectively to subtype of muscarinic receptors. Historically the type is named the M1-site, whereas pirenzepine sensitive site would be more appropriate. Although selective for M1-sites pirenzepine also interact with M2-sites.
as §1, with “cortex (0.1-1 9) from male” for “cortex (0.1-1 g) from male”, “Wistar rats (150-200 g) is” for “Wistar rats (150-250 g) is”, “mL 20 mM Hepes pH:” for “mL 20 nM Hepes pH:”, “rinsed with 2 x 10 mL” for “rinsed with 10 mL”, “before in 3 x 10” for “before in 2 x 10”
The final pellet is homogenized in 20 mM Hepes pH: 7.4 (100 mL per g of original tissue) and used for binding assay. Aliquots of 0.5 mL is added 20 µL of test solution and 25 µL of ^3HPRZ (1.0 nM, final conc.), mixed and incubated for 60 min. at 20°C. Non-specific binding is determined in triplicate using atropine (1.0 µg/mL, final conc.) as the test substance. After incubation samples are added 5 mL of ice-cold buffer and poured directly onto Whatman GF/C glass fiber filters under suction and immediately washed 2 times with 5 mL of ice-cold buffer. The amount of radioactivity on the filters are determined by conventional liquid scintillation counting. Specific binding is total binding minus non-specific binding.
Test substances are dissolved in 10 mL water, at a concentration of 0.22 mg/mL. 25-75% inhibition of specific binding must be obtained before calculation of IC50.
The test value will be given as IC50 (the concentration (nM) of the test substance which inhibits the specific binding of ^3HPRZ by 50%). IC50 = (applied test substance concentration) x(Cx/Co-Cx)nM where Co is specific binding in control assays and Cx is the specific binding in the test assay. (The calculations assume normal mass-action kinetics).

CCCCOc1nsnc1C1CC2CCC1NC2 (single isomer, unassigned) [Compound 4, ENDO 2-aza-6-(4-butyloxy-1,2,5-thiadiaz-3-yl)-bicyclo[2.2.2]octane]
IC50 [1]: 4.2 nM | IC50 ([2]; read-out: ^3HPRZ IC50): 17 nM

CCCCOc1nsnc1C1CC2CCC1NC2 (single isomer, unassigned) [Compound 5, EXO 2-aza-6-(4-butyloxy-1,2,5-thiadiaz-3-yl)bicyclo[2.2.2]octane]
IC50 [1]: 143 nM | IC50 ([2]; read-out: ^3HPRZ IC50): 139 nM

CCCCCCOc1nsnc1C1CC2CCC1N(C)C2 (single isomer, unassigned) [Compound 7, ENDO 2-Aza-6-(4-hexyloxy-1,2,5-thiadiaz-3-yl)-2-methylbicyclo[2.2.2]octane]
IC50 ([2]; read-out: ^3HPRZ IC50): 21 nM

CCCCCCOc1nsnc1C1CC2CCC1N(C)C2 (single isomer, unassigned) [Compound 8, EXO 2-Aza-6-(4-hexyloxy-1,2,5-thiadiaz-3-yl)-2-methylbicyclo[2.2.2]octane]
IC50 ([2]; read-out: ^3HPRZ IC50): 58 nM

CCCCSc1nsnc1C1CC2CCC1NC2 (stereo not drawn) [Compound 9, ENDO 2-aza-6-(4-butylthio-1,2,5-thiadiaz-3-yl)bicyclo[2.2.2]octane]
IC50 [1]: 2 nM | IC50 ([2]; read-out: ^3HPRZ IC50): 2.7 nM

CCCSc1nsnc1C1CC2CCC1NC2 (stereo not drawn) [Compound 11, ENDO 2-Aza-6-(4-propylthio-1,2,5-thiadiaz-3-yl)bicyclo[2.2.2]octane]
IC50 [1]: 4.1 nM | IC50 ([2]; read-out: ^3HPRZ IC50): 13 nM

CCCOc1nsnc1C1CC2CCC1NC2 (stereo not drawn) [Compound 13, EXO 2-Aza-6-(4-propoxy-1,2,5-thiadiaz-3-yl)bicyclo[2.2.2]octane]
IC50 [1]: 263 nM | IC50 ([2]; read-out: ^3HPRZ IC50): 172 nM

CSc1nsnc1C1CC2CCC1NC2 (stereo not drawn) [Compound 14, EXO 2-Aza-6-(4-methylthio-1,2,5-thiadiaz-3-yl)bicyclo[2.2.2]octane]
IC50 [1]: 685 nM | IC50 ([2]; read-out: ^3HPRZ IC50): 365 nM

CCCCCSc1nsnc1C1CC2CCC1NC2 (stereo not drawn) [Compound 15, ENDO 2-aza-6-(4-thiopentyl-1,2,5-thiadiaz-3-yl)bicyclo[2.2.2]octane]
IC50 [1]: 3.4 nM | IC50 ([2]; ^3HPRZ IC50,nM): 5 nM

CCCCCSc1nsnc1C1CC2CCC1NC2 (stereo not drawn) [Compound 16, EXO 2-aza-6-(4-pentylthio-1,2,5-thiadiaz-3-yl)-bicyclo[2.2.2]octane]
IC50 [1]: 83 nM | IC50 ([2]; ^3HPRZ IC50,nM): 45 nM

CC(C)CCCSc1nsnc1C1CC2CCC1NC2 (stereo not drawn) [Compound 17]
IC50 ([2]; read-out: ^3HPRZ IC50): 170 nM

CC(C)CCCSc1nsnc1C1CC2CCC1NC2 (stereo not drawn) [Compound 18, ENDO 2-Aza-6-(4-((4-methylpentyl)thio)-1,2,5-thiadiaz-3-yl)bicyclo[2.2.2]octane]
IC50 ([2]; read-out: ^3HPRZ IC50): 13 nM

CSc1nsnc1C1CC2CCC1NC2 (stereo not drawn) [Compound 19]
IC50 [1]: 18 nM | IC50 ([2]; read-out: ^3HPRZ IC50): 128 nM

FC(F)(F)CCCSc1nsnc1C1CC2CCC1NC2 (stereo not drawn) [Compound 20, ENDO 2-Aza-6-(4-((4,4,4-trifluorobutyl)thio)-1,2,5-thiadiaz-3-yl)-bicyclo[2.2.2]octane]
IC50 ([2]; read-out: ^3HPRZ IC50): 5.5 nM

FC(F)(F)c1ccc(CSc2nsnc2C2CC3CCC2NC3)cc1 (stereo not drawn) [Compound 22, EXO 2-Aza-6-(4-(((4-trifluoromethyl)phenyl)methylthio)-1,2,5-thiadiaz-3-yl)-bicyclo[2.2.2]octane]
IC50 ([2]; read-out: ^3HPRZ IC50): 444 nM

N#Cc1ccc(CSc2nsnc2C2CC3CCC2NC3)cc1 (stereo not drawn) [Compound 23, ENDO 2-Aza-6-(4-((4-cyanophenyl)methylthio)-1,2,5-thiadiaz-3-yl)-bicyclo[2.2.2]octane]
IC50 [1]: 26 nM | IC50 ([2]; ^3HPRZ IC50,nM): 36 nM

N#Cc1ccc(CSc2nsnc2C2CC3CCC2NC3)cc1 (stereo not drawn) [Compound 24, EXO 2-Aza-6-(4-((4-cyanophenyl)methylthio)-1,2,5-thiadiaz-3-yl)-bicyclo[2.2.2]octane]
IC50 [1]: 60 nM | IC50 ([2]; ^3HPRZ IC50,nM): 91 nM

N#Cc1ccc(CSc2nsnc2C2CC3CCC2NC3)s1 (stereo not drawn) [Compound 25, ENDO 2-Aza-6-(4-((5-cyanothien-2-yl)methylthio)-1,2,5-thiadiaz-3-yl)-bicyclo[2.2.2]octane]
IC50 ([2]; read-out: ^3HPRZ IC50): 6.2 nM

N#Cc1ccc(CSc2nsnc2C2CC3CCC2NC3)s1 (stereo not drawn) [Compound 26, EXO 2-Aza-6-(4-((5-cyanothien-2-yl)methylthio)-1,2,5-thiadiaz-3-yl)-bicyclo[2.2.2]octane]
IC50 ([2]; read-out: ^3HPRZ IC50): 20 nM

CCCCCCSc1nsnc1C1CC2CCC1NC2 (stereo not drawn) [Compound 27, EXO 2-Aza-6-(4-hexylthio-1,2,5-thiadiaz-3-yl)bicyclo[2.2.2]octane]
IC50 ([2]; read-out: ^3HPRZ IC50): 2.3 nM

CCCCCCSc1nsnc1C1CC2CCC1NC2 (stereo not drawn) [Compound 28, EXO 2-Aza-6-(4-hexylthio-1,2,5-thiadiaz-3-yl)bicyclo[2.2.2]octane]
IC50 ([2]; read-out: ^3HPRZ IC50): 62 nM

CCCCCOc1nsnc1C1CC2CCC1NC2 (stereo not drawn) [Compound 30, ENDO 2-aza-6-(4-pentoxy-1,2,5-thiadiaz-3-yl)-bicyclo[2.2.2]octane]
IC50 ([2]; read-out: ^3HPRZ IC50): 15 nM

CCCCCOc1nsnc1C1CC2CCC1NC2 (stereo not drawn) [Compound 31, EXO 2-aza-6-(4-pentoxy-1,2,5-thiadiaz-3-yl)bicyclo[2.2.2]octane]
IC50 ([2]; read-out: ^3HPRZ IC50): 80 nM

FC(F)(F)c1ccc(COc2nsnc2C2CC3CCC2NC3)cc1 (stereo not drawn) [Compound 32, EXO 2-Aza-6-(4-((4-trifluoromethylphenyl)methoxy)-1,2,5-thiadiaz-3-yl)-bicyclo[2.2.2]octane]
IC50 ([2]; read-out: ^3HPRZ IC50): 244 nM

FC(F)(F)c1ccc(COc2nsnc2C2CC3CCC2NC3)cc1 (stereo not drawn) [Compound 33, EXO 2-Aza-6-(4-((4-trifluoromethylphenyl)methoxy)-1,2,5-thiadiaz-3-yl)-bicyclo[2.2.2]octane]
IC50 ([2]; read-out: ^3HPRZ IC50): 273 nM
